Test results from patent US6413517B1, “Identification of broadly reactive DR restricted epitopes” (Epimmune, Inc., priority 1997, dated 2002).
Where two headings read alike, the source gives them in different places. No end group written: not given here.

How the values were obtained:
DRB1*0901 (DR9) = target: T1, DRB1*0901 (DR9) (Homo sapiens, UniProt P01903+P01911, A100R/A103E/D57H/D86V/F55Y/F60I/F76Y/I96F/K127E/L162R/M171V/P40D/Q125H/Q99R/R33Q/R42F/S133A/S66N/T210M/V115G/W38K/Y107V/Y59G/Y89S); experiment: biochemical; assay type: binding
T1 construct: Epstein-Barr virus (EBV) transformed homozygous cell lines were used as sources; endogenous in cells

DRB1*0101 (DR1) = target: T2, DRB1*0101 (DR1) (Homo sapiens, UniProt P01903+P01911, A100R/D57E/F55L/F60I/F76Y/I96L/L162R/M171V/P40L/Q125E/R42F/V115G/Y59C); experiment: biochemical; assay type: binding
T2 construct: Epstein-Barr virus (EBV) transformed homozygous cell lines were used as sources; endogenous in cells; host or cells: LG2 (EBV-transformed homozygous B cell line)

DRB1*0401 (DR4w4) = target: T3, DRB1*0401 (DR4w4) (Homo sapiens, UniProt P01903+P01911, A100K/A169T/F76Y/I96L/K127E/L162R/M171V/N62H/P40V/Q125Y/R42H/S133A/S149N/S66Y/V115G/V209L/W38E); experiment: biochemical; assay type: binding
T3 construct: Epstein-Barr virus (EBV) transformed homozygous cell lines were used as sources; endogenous in cells; host or cells: PREISS (EBV-transformed homozygous B cell line)

DRB1*1501 (DR2w2b) = target: T4, DRB1*1501 (DR2w2b) (Homo sapiens, UniProt P01903+P01911); experiment: biochemical; assay type: binding
T4 construct: expressed in transfected cells; host or cells: transfected fibroblasts L466.1

DRB1*0802 (DR8w2) = target: T5, DRB1*0802 (DR8w2) (Homo sapiens, UniProt P01903+P01911, A100R/A103L/A169T/F76Y/H45Y/I96F/K41T/L162R/M171V/P40S/Q125H/Q178H/Q39Y/Q99D/R218S/R42G/S66Y/V115G/W38E); experiment: biochemical; assay type: binding
T5 construct: Epstein-Barr virus (EBV) transformed homozygous cell lines were used as sources; endogenous in cells; host or cells: OLL (EBV-transformed homozygous B cell line)

DRB1*1101 (DR5w11) = target: T6, DRB1*1101 (DR5w11) (Homo sapiens, UniProt P01903+P01911, A100R/A169T/A87E/I96F/K41T/L162R/M171V/P40S/Q125H/Q178H/Q39Y/Q99D/R42S/S66Y/T262R/V115G/W38E); experiment: biochemical; assay type: binding
T6 construct: Epstein-Barr virus (EBV) transformed homozygous cell lines were used as sources; endogenous in cells; host or cells: SWEIG (EBV-transformed homozygous B cell line)
T6 sequence (P01903 26-254, other chains not shown): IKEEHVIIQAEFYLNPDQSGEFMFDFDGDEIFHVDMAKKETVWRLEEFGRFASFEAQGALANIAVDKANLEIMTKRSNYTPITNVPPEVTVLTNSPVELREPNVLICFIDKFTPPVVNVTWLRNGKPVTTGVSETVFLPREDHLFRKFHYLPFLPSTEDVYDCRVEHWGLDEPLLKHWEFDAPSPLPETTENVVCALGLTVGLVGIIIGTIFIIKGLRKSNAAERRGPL

DRB1*0301 (DR3w17) [1] = target: T7, DRB1*0301 (DR3w17) (Homo sapiens, UniProt P01903+P01911, A100K/A102G/A103R/A169T/F55Y/I96L/K41T/L162R/M171V/P40S/Q125H/Q178H/Q39Y/R42S/S66N/T106N/T262R/W38E/Y61H); experiment: biochemical; conditions: Binding Capacity (IC50% nM) DR3
DRB1*0405 (DR4w15) = target: T8, DRB1*0405 (DR4w15) (Homo sapiens, UniProt P01903+P01911, A100R/A169T/D86S/F76Y/I96L/K127E/L162R/M171V/N62H/P40V/Q125Y/R42H/S133A/S149N/S66Y/V115G/V209L/W38E); experiment: biochemical; assay type: binding
T8 construct: Epstein-Barr virus (EBV) transformed homozygous cell lines were used as sources; endogenous in cells; host or cells: KT3 (EBV-transformed homozygous B cell line)

DRB5*0101 (DR2w2a) = target: T9, DRB5*0101 (DR2w2a) (Homo sapiens, UniProt P01903+Q30154); experiment: biochemical; assay type: binding
T9 construct: Epstein-Barr virus (EBV) transformed homozygous cell lines were used as sources; endogenous in cells; host or cells: GM3107 (EBV-transformed homozygous B cell line)

DRB1*0301 (DR3w17) [2] = target: T7, DRB1*0301 (DR3w17); conditions: read-out: Binding Capacity (IC 50% nM) Other Alleles DR3
DRB1*0701 (DR7) = target: T10, DRB1*0701 (DR7) (Homo sapiens, UniProt P01903+P01911, A100R/A102G/A103Q/D57E/D86V/E43K/F76Y/K127E/L162R/M171V/P40G/Q125H/Q99D/R33Q/R42Y/R54Q/S133A/S66F/T210M/V115G/Y107V/Y59L/Y89S); experiment: biochemical; assay type: binding
T10 construct: Epstein-Barr virus (EBV) transformed homozygous cell lines were used as sources; endogenous in cells; host or cells: PITOUT (EBV-transformed homozygous B cell line)

DRB1*1302 (DR6w19) = target: T11, DRB1*1302 (DR6w19) (Homo sapiens, UniProt P01903+P01911, A100E/A169T/K41T/L162R/M171V/P40S/Q125H/Q178H/Q39Y/Q99D/R42S/S66N/T262R/V115G/W38E/Y61H); experiment: biochemical; assay type: binding
T11 construct: Epstein-Barr virus (EBV) transformed homozygous cell lines were used as sources; the source of Class II molecules the EBV transformed homozygous cell line H0301; endogenous in cells; host or cells: H0301 (EBV-transformed homozygous B cell line)

DRB1*1201 (DR5w12) = target: T12, DRB1*1201 (DR5w12) (Homo sapiens, UniProt P01903+P01911, A100R/A169T/D57E/D86V/F55L/H45Y/K41T/L162R/M171V/P40S/Q125H/Q178H/Q39Y/Q99D/R42G/S66L/T262R/V114A/V67L/W38E/Y59H/Y61H/Y89S); experiment: biochemical; assay type: binding
T12 construct: Epstein-Barr virus (EBV) transformed homozygous cell lines were used as sources; endogenous in cells; host or cells: Herluf (EBV-transformed homozygous B cell line)

[3] = Binding Capacity (IC 50% nM) Other Alleles DR9
[4] = Binding Capacity (IC 50% nM) DR1,4,7 DRB1
[5] = read-out: Binding Capacity (IC 50% nM) DR1,4,7 DR4w4
[6] = Binding Capacity (IC50% nM) DR8w2
[7] = read-out: Binding Capacity (IC 50% nM) Other Alleles DR8w2
[8] = Binding Capacity (IC50% nM) DR5w11
[9] = read-out: Binding Capacity (IC 50% nM) Other Alleles DR5w11
[10] = read-out: Binding Capacity (IC 50% nM) Other Alleles DR4w15
[11] = Binding Capacity (IC50% nM) DR2w2a
[12] = read-out: Binding Capacity (IC 50% nM) Other Alleles DR2w2a
[13] = Binding Capacity (IC 50% nM) DR1,4,7 DR7
[14] = Binding Capacity (IC50% nM) DR5w12
[15] = read-out: Binding Capacity (IC 50% nM) Other Alleles DR5w12
[16] = Binding Capacity (IC50% nM) DR9
[17] = Binding Capacity (IC50% nM) DR1
[18] = Binding Capacity (IC50% nM) DR4w4
[19] = Binding Capacity (IC 50% nM) Other Alleles DR2w2b
[20] = Binding Capacity (IC50% nM) DR4w15
[21] = Binding Capacity (IC50% nM) DR6w19
[22] = read-out: Binding Capacity (IC 50% nM) Other Alleles DR6w19

Molecule | IC50 (DRB1*0901 (DR9); [3]) [nM] | IC50 (DRB1*0101 (DR1); [4]) [nM] | IC50 (DRB1*0401 (DR4w4); [5]) [nM] | IC50 (DRB1*0802 (DR8w2); [6]) [nM] | IC50 (DRB1*0802 (DR8w2); [7]) [nM] | IC50 (DRB1*1101 (DR5w11); [8]) [nM] | IC50 (DRB1*1101 (DR5w11); [9]) [nM] | IC50 (DRB1*0301 (DR3w17) [1]) [nM] | IC50 (DRB1*0405 (DR4w15); [10]) [nM] | IC50 (DRB5*0101 (DR2w2a); [11]) [nM] | IC50 (DRB5*0101 (DR2w2a); [12]) [nM] | IC50 (DRB1*0301 (DR3w17) [2]) [nM] | IC50 (DRB1*0701 (DR7); [13]) [nM] | IC50 (DRB1*1201 (DR5w12); [14]) [nM] | IC50 (DRB1*1201 (DR5w12); [15]) [nM] | IC50 (DRB1*0901 (DR9); [16]) [nM] | IC50 (DRB1*0101 (DR1); [17]) [nM] | IC50 (DRB1*0401 (DR4w4); [18]) [nM] | IC50 (DRB1*1501 (DR2w2b); [19]) [nM] | IC50 (DRB1*0405 (DR4w15); [20]) [nM] | also measured
CC[C@H](C)[C@H](NC(=O)[C@H](CO)NC(=O)[C@H](CO)NC(=O)[C@H](CC(N)=O)NC(=O)[C@@H](NC(=O)[C@@H](NC(=O)[C@H](CC(N)=O)NC(=O)[C@H](Cc1ccccc1)NC(=O)[C@@H](N)C(C)C)C(C)C)C(C)C)C(=O)NCC(=O)N[C@@H](CC(C)C)C(=O)N[C@H](C(=O)N[C@@H](CCSC)C(=O)N[C@H](C(=O)N[C@@H](CC(C)C)C(=O)O)C(C)C)[C@@H](C)CC [Peptide F107.23] | < 1000 | < 1000 | > 1000 | > 10000 | > 1000 | > 10000 | > 1000 | > 10000 | > 1000 | > 10000 | > 1000 | > 1000 | < 1000 | > 10000 | > 1000 |  |  |  |  |  | IC50 (DRB1*1501 (DR2w2b); read-out: Binding Capacity (IC 50% nM) Other Alleles DR2w2b): > 1000 nM; IC50 (DRB1*1302 (DR6w19); Binding Capacity (IC 50% nM) Other Alleles DR6w19): < 1000 nM
GPPTALRSFGFAFGYM [Peptide 1136.29] | < 1000 | < 1000 | > 1000 | 2970 | > 1000 | 6250 | > 1000 | > 10000 |  | 468 |  | > 1000 | < 1000 | 1000 |  | 183 | 32 | 4330 | < 1000 | 745 | IC50 (DRB1*1501 (DR2w2b); Binding Capacity (IC50% nM) DR2w2b): 1.1 nM; IC50 (DRB1*0405 (DR4w15); Binding Capacity (IC 50% nM) Other Alleles DR4w15): < 1000 nM; IC50 (DRB5*0101 (DR2w2a); Binding Capacity (IC 50% nM) Other Alleles DR2w2a): < 1000 nM; IC50 (DRB1*1302 (DR6w19); [21]): > 10000 nM; IC50 (DRB1*1302 (DR6w19); [22]): > 1000 nM; IC50 (DRB1*1201 (DR5w12); Binding Capacity (IC 50% nM) Other Alleles DR5w12): < 1000 nM
LAAIIFLFGPPTALRS [Peptide 1136.28] |  | < 1000 |  | 7540 | > 1000 |  | > 1000 | > 10000 | > 1000 | 1480 | > 1000 | > 1000 |  | 4480 | > 1000 | > 10000 | 0.23 | 849 | < 1000 | 6670 | IC50 (DRB1*0901 (DR9); read-out: Binding Capacity (IC 50% nM) Other Alleles DR9): > 1000 nM; IC50 (DRB1*0401 (DR4w4); Binding Capacity (IC 50% nM) DR1,4,7 DR4w4): < 1000 nM; IC50 (DRB1*0701 (DR7); Binding Capacity (IC50% nM) DR7): 3620 nM; IC50 (DRB1*0701 (DR7); read-out: Binding Capacity (IC 50% nM) DR1,4,7 DR7): > 1000 nM; IC50 (DRB1*1302 (DR6w19); [21]): 3180 nM; IC50 (DRB1*1302 (DR6w19); [22]): > 1000 nM
